Data as given in patent publication US5434256A, “Diamine platinum complexes as antitumor agents” (priority 1994, dated 1995).
“Also recorded” adds a separate entry of the source.

Tests used:
M5076 reticulosarcoma = experiment: In vivo antitumor activity, M5076 reticulosarcoma (Example 6, Table 11); set-up: species or system male BDF1 mice; details: M5076 s.c.; drug i.p. days 5, 9, 13, 17; optimal dose (mg/kg/inj): 12: 25; Cisplatin: 5
Method: (§1) Cisplatin-sensitive L1210/0 or cisplatin-resistant L1210/DDP cells (1×10^5 cells/mouse) were injected intraperitoneally in male BDF1 mice on day 0, and the drug, in an aqueous medium, administered intraperitoneally at dose levels ranging from 1.56 to 200 mg/kg on days 1, 5 and 9. The median life spans of control (C) and treated (T) animals were determined, and the percent T/C at the optimal dose calculated as an indicator of antitumor efficacy. The complexes were also evaluated against the M5076 reticulosarcoma. […]. The tumor volumes were measured periodically and efficacy at the optimal dose reported as tumor growth delay (TGD), which is defined as the time difference in days for the tumor in control and treated mice to reach a specified volume.
(§2) BDF1 mice inoculated i.p. with 10^5 L1210 Leukemia cells on day 0 wer
(§3) administered the drug on days 1, 5, and 9. BDF1 mice inoculated s.c. with
(§4) 10^7 M5076 cells on day 0 received the drug on days 5, 9, 13, and 17.
(§5) % T/C = [(median survival time of treated)/(median survival time of
(§6) control)] × 100. TGD = tumor growth delay.

L1210/DDP cells [1] = experiment: MTT cytotoxicity, cisplatin-resistant L1210/DDP (Example 5, Table 10); format: cell-based, murine; details: 72 hr (3 days) continuous exposure
L1210/DACH cells = experiment: MTT cytotoxicity, tetraplatin-resistant L1210/DACH (Example 5, Table 10); format: cell-based, murine; details: 72 hr (3 days) continuous exposure
L1210/0 cells [2] = experiment: MTT cytotoxicity, L1210/0 (Example 5, Table 10); format: cell-based, murine; details: 72 hr (3 days) continuous exposure
L1210/DDP cells [3] = experiment: In vivo antitumor activity, cisplatin-resistant L1210/DDP (Example 6, Table 11); set-up: species or system male BDF1 mice; details: L1210/DDP i.p.; drug i.p. days 1, 5, 9; median survival; optimal dose (mg/kg/inj): 12: 25; Cisplatin: 5
Method: as §1, §2, §3, §4, §5, §6

A2780 cells = experiment: Modified MTT cytotoxicity assay, human ovarian A2780 (Example 2, Table 3); format: cell-based; details: continuous exposure (5 days in table footnote; 7 days in text)
M5076 Tumor Model = experiment: In vivo antitumor activity against M5076 tumor model (Example 3, Table 4); set-up: species or system BDF1 mice; TGD (Tumor Growth Delay): unit not given beside the values; details: for MTD (Maximum Tolerated Dose) / TGD (Tumor Growth Delay): M5076 s.c., BDF1 mice, i.p. days 7, 14, 21, 28; for TGD (Tumor Growth Delay): at optimal dose/MTD
Method: (§7) Each of the platinum complexes was evaluated in vivo against L1210/0, L1210/DDP, L1210/DACH and M5076 cells at several dose levels. […] The data at optimal doses are reproduced in Tables 4-7 along with data for the cyclobutanedicarboxylato, aquasulfato, methylmalonato and tartronato analogs (compounds 1-4 in Table 1).
BDF1 mice inoculated s.c. with 10' M5076 cells on day 0 and drug
administered i.p on days 7, 14, 21, and 28. MTD = Maximum Tolerated Dose
(mg/kg/injection), TGD = Tumor Growth Delay

Murine Leukemia 1210/DDP = experiment: In vivo antitumor activity against murine leukemia L1210/DDP (Example 3, Table 7); set-up: species or system BDF1 mice; details: for % T/C (mean survival time of treated/mean survival time of control) × 100: at optimal dose/MTD
Method: as §7
(§8) BDF1 mice inoculated i.p. with 10^5 L1210 Leukemia cells on day 0 and
drug administed i.p. on days 1, 5, and 9. MTD = Maximum Tolerated Dose
(§9) (mg/kg/injection), % T/C = (mean survival time of treated/mean survival
(§10) time of control) × 100. Figures in parenthesis indicated long term

[4] = system: Murine Leukemia L1210/DACH; experiment: In vivo antitumor activity against murine leukemia L1210/DACH (Example 3, Table 6); set-up: species or system BDF1 mice; details: for MTD (Maximum Tolerated Dose) / % T/C (mean survival time of treated/mean survival time of control) × 100: L1210/DACH i.p., BDF1 mice, drug i.p. days 1, 5, 9; for % T/C (mean survival time of treated/mean survival time of control) × 100: at optimal dose/MTD
Method: as §7, §8
(§11) drug administered i.p. on days 1, 5, and 9. MTD = Maximum Tolerated Dose
as §9, §10

L1210/0 cells [5] = experiment: In vivo antitumor activity, L1210/0 (Example 6, Table 11); set-up: species or system male BDF1 mice; details: for % T/C at optimal dose: L1210/0 i.p., drug i.p. days 1, 5, 9, median survival, optimal dose (mg/kg/inj): 12, 13, 14: 25, 15: 12.5, Cisplatin: 5; for Optimal Dose: i.p., dose levels 1.56 to 200 mg/kg tested, L1210/0, L1210/DDP and M5076
Method: as §1, §2
administered the drug on days 1, 5, and 9. […]

L1210/0 cells [6] = experiment: Modified MTT cytotoxicity assay, murine leukemia L1210/0 (Example 2, Table 3); format: cell-based; details: for IC50: L1210/0, MTT, continuous exposure 5 days; for effectiveness against murine versus human cells (in words): L1210/0 versus A2780
Murine Leukemia L1210/0 = experiment: In vivo antitumor activity against murine leukemia L1210/0 (Example 3, Table 5); set-up: species or system BDF1 mice; details: for MTD (Maximum Tolerated Dose) / % T/C (mean survival time of treated/mean survival time of control) × 100 / long term survivors/no. tested: L1210/0 i.p., BDF1 mice, drug i.p. days 1, 5, 9; for % T/C (mean survival time of treated/mean survival time of control) × 100: at optimal dose/MTD; for long term survivors/no. tested: figures in parenthesis
Method: as §7
BDF1 mice inoculated i.p. with 10^5 L1210 Leukemiacells on day 0 and
as §11, §9
time of control) × 100. Figures in parenthesis indicate long term

[7] = Renal and hematological toxicity, single i.p. dose (Table 8); details: for BUN d.5: blood urea nitrogen, saline control 20.9; for BUN d.5 / Survivors on d.14 / Body Wt. on d.5: single i.p. dose (mg/kg): 1,4-DACH-Pt^II CBDCA 300, 1,4-DACH-Pt^IV Cl4 8.0, Tetraplatin 8.0, Cis-platin 12.0, Carboplatin 150; for Body Wt. on d.5: mean, S.D. less than 20%; for myelotoxicity / myelosuppression (in words): leucopenia
[8] = L1210/DDP i.p., BDF1 mice, drug i.p. days 1, 5, 9

SMILES | IC50 (L1210/DDP cells [1]) [nM] | IC50 (L1210/DACH cells) [nM] | IC50 (L1210/0 cells [2]) [nM] | IC50 (A2780 cells) [nM] | MTD (Maximum Tolerated Dose) (M5076 Tumor Model) [mg/kg/injection] | TGD (Tumor Growth Delay) (M5076 Tumor Model) | MTD (Maximum Tolerated Dose) (Murine Leukemia 1210/DDP; [8]) [mg/kg/injection] | % T/C (mean survival time of treated/mean survival time of control) × 100 (Murine Leukemia 1210/DDP; [8]) [%] | antitumor activity in vivo against L1210/DACH (in words) [4] | MTD (Maximum Tolerated Dose) [4] [mg/kg/injection] | % T/C (mean survival time of treated/mean survival time of control) × 100 [4] [%] | % T/C at optimal dose (L1210/0 cells [5]) [%] | Optimal Dose (L1210/0 cells [5]) [mg/kg/inj] | IC50 (L1210/0 cells [6]) [nM] | MTD (Maximum Tolerated Dose) (Murine Leukemia L1210/0) [mg/kg/injection] | % T/C (mean survival time of treated/mean survival time of control) × 100 (Murine Leukemia L1210/0) [%] | also measured
N.N.[Cl][Pt][Cl] [Cis-platin, cis-diaminedichloroplatinum(II), reference compound] | 32800 | 1910 | 200 | 360 | 5.0 | 23.1 | 5.0 | 100 | minimally sensitive to cis-platin | 5.0 | 127 | 218 | 5 | 230 | 5.0 | 218 | TGD (tumor growth delay) at optimal dose (M5076 reticulosarcoma): 16.0 days; % T/C at optimal dose (L1210/DDP cells [3]): 110%; effectiveness against murine versus human cells (in words) (L1210/0 cells [6]): more effective against murine than human cells
NC1CCC(N)CC1.[Cl][Pt]([Cl])([Cl])[Cl] (stereo not drawn) [Compound 7, Cis-1,4-Diaminocyclohexanetetrachloroplatinum(IV)] | – | – | – | 90 | 3.1 | 18.74 | 3.1 | 170 | good activities; also recorded: good activity | 3.1 | 146 | – | – | 120 | 3.1 | 335 | BUN d.5 [7]: 21.3 mg %; Survivors on d.14 [7]: 4/5; Body Wt. on d.5 [7]: 89 % on control; nephrotoxicity (in words) ([7]; single i.p. dose, BUN): did not show any indication of nephrotoxicity; myelotoxicity / myelosuppression (in words) ([7]; single i.p. dose): did not show any indication of nephrotoxicity or myelotoxicity; antitumor activity in vivo against L1210/DDP (in words) (Murine Leukemia 1210/DDP): good activities; also recorded: comparable or slightly greater activity; long term survivors/no. tested (Murine Leukemia 1210/DDP; L1210/DDP i.p., BDF1 mice, drug i.p. days 1, 5, 9, figures in parenthesis): 1/5; antitumor activity in vivo against L1210/0 (in words) (Murine Leukemia L1210/0): excellent activity; also recorded: comparable or slightly greater activity; long term survivors/no. tested (Murine Leukemia L1210/0): 2/5
CC(=O)[O][Pt]([Cl])([Cl])[O]C(C)=O.N[C@@H]1CCCC[C@H]1N [Compound 12, (R,R-1,2-DACH)PtCl2 trans(acetate)2] | 700 | 2300 | 220 | – | – | – | – | – | – | – | – | 276 | 25 | – | – | – | TGD (tumor growth delay) at optimal dose (M5076 reticulosarcoma): 18.3 days; % T/C at optimal dose (L1210/DDP cells [3]): 144%
CC(=O)[O][Pt]([Cl])([Cl])[O]C(C)=O.N[C@H]1CCCC[C@@H]1N [Compound 13, (S,S-1,2-DACH)PtCl2 trans-(acetate)2] | 7000 | 4200 | 880 | – | – | – | – | – | – | – | – | 265 | 25 | – | – | – | –
CC(=O)[O][Pt]([Cl])([Cl])[O]C(C)=O.NC1CCCCC1N [Compound 14, (cis-1,2-DACH)PtCl2 trans(acetate)2] | 115000 | 20900 | 3000 | – | – | – | – | – | – | – | – | 171 | 25 | – | – | – | –
N[C@@H]1CCCC[C@H]1N.O=C([O][Pt]([Cl])([Cl])[O]C(=O)C(F)(F)F)C(F)(F)F [Compound 15, (R,R-1,2-DACH)PtCl2 trans(trifluoroacetate)2] | 850 | 1720 | 100 | – | – | – | – | – | – | – | – | 241 | 12.5 | – | – | – | –
N[C@@H]1CCCC[C@H]1N.[Cl][Pt+2]([Cl])([Cl])[Cl] [Tetraplatin, reference compound] | 440 | 5300 | 110 | 200 | 3.1 | 11.8 | 3.1 | 143 | resistant to tetraplatin | 3.1 | 89 | – | – | 110 | 3.1 | 310 | antitumor properties against M5076 (in words) (M5076 Tumor Model; M5076): the least active; BUN d.5 [7]: 17.2 mg %; Survivors on d.14 [7]: 5/5; Body Wt. on d.5 [7]: 94 % on control; myelotoxicity / myelosuppression (in words) ([7]; single i.p. dose): myelosuppressive; antitumor activity in vivo against L1210/DDP (in words) (Murine Leukemia 1210/DDP): active; potency relative to cis-platin (L1210/0 cells [6]; L1210/0 and A2780 tumor lines, more potent than cis-platin): 2-3 fold; effectiveness against murine versus human cells (in words) (L1210/0 cells [6]): more effective against murine than human cells; antitumor activity in vivo against L1210/0 (in words) (Murine Leukemia L1210/0): active; long term survivors/no. tested (Murine Leukemia L1210/0): 2/5
